Results reported in PMC3348135, “Identification of New Agonists and Antagonists of the Insect Odorant Receptor Co-Receptor Subunit” (PLoS ONE, 2012).

Experiment: Solubility in recording solution (observation)
Assay type: physicochemical
Conditions: aqueous recording solution, higher concentrations (OLC2: above 100 µM)
Procedure: Odorant and Orco ligand induced currents were recorded under two-electrode voltage clamp in Xenopus laevis oocytes expressing ORs, using an automated parallel electrophysiology system (OpusExpress 6000A; Molecular Devices). Oocytes were perfused with ND96 (in mM: 96 NaCl, 2 KCl, 1 CaCl2, 1 MgCl2, 5 HEPES, pH 7.5). Odorant stock solutions (0.5 or 1 M) and Orco ligand stock solutions (100 mM) were prepared in DMSO and diluted in ND96. Unless otherwise noted, applications were for 60 sec at a flow rate of 1.0 ml/min, with extensive washing in ND96 (9 or 20 min at 4.6 ml/min) between applications. Micropipettes were filled with 3 M KCl and had resistances of 0.2−2.0 MΩ. The holding potential was −70 mV. Current responses, filtered (4-pole, Bessel, low pass) at 20 Hz (−3 db) and sampled at 100 Hz, were captured and stored using OpusXpress 1.1 software (Molecular Devices).

In the case of `CCc1ccc(NC(=O)CSc2nnc(-c3ccccn3)n2CC)cc1` [OLC2], the Solubility is reported as “poor solubility”.
